Assay results reported in patent EP3046573B1, “AMYLIN ANALOGUES” (Zealand Pharma A/S, priority 2013, dated 2015).
Read-outs that look alike come from different tables or passages of the source. Numbered stars: 1 amine (or outer) side, 2 acyl side, 3 side chain; on linkers, the order of the positions; unused ones are H or OH. Bridge positions count the residues as written; N and C are the ends. Square brackets hold non-standard residues; d marks the D form. Peptide text beside a SMILES is read from it. * marks the point of attachment. C20 diacid = O=C(O)CCCCCCCCCCCCCCCCCCC(=O)*; γGlu = O=C(O)[C@H](CCC(=O)[*:2])N[*:1]; NMeI = CC[C@H](C)[C@H](NC)C(=O)O; Sar = CNCC(=O)O

Target: T1, human calcitonin receptor (hCTR2) (Homo sapiens, UniProt P30988)
T1 construct: expressed in transfected cells
T1 sequence (P30988 25-474): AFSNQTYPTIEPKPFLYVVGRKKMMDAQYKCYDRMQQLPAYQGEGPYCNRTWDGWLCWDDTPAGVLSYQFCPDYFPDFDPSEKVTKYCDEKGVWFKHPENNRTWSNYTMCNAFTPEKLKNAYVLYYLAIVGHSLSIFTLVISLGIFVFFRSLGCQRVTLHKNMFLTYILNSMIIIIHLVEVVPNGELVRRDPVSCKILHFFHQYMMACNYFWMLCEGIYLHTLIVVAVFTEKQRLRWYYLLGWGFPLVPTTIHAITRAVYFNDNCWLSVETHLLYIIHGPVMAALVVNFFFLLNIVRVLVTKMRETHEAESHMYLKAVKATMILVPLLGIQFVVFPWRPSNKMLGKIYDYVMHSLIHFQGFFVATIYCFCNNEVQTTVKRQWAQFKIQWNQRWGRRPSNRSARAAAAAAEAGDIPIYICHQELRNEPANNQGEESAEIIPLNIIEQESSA
Assay: hCTR2 assay: induction of cAMP (AlphaScreen cAMP Assay kit) in COS7 cells expressing hCTR2
Format: cell-based
Text: The cell line COS7, originating from African Green Monkey kidney fibroblast cells, was used for establishment of the stable cell lines described below. The COS7 cellular background was used due to it being RAMP naive, and as such it provides the best available system for testing of the monomeric hCTR and different heterodimeric amylin receptor subtypes functionally generated by introduction of the individual RAMPs.
A cell line expressing the human calcitonin receptor (hCTR2) was generated in the COS7 cellular background as stable clones. In brief, hCTR2 (GI: 4502547) was amplified by PCR using primers encoding terminal restriction sites for subcloning. The 5'-end primers additionally encoded a near Kozak consensus sequence to ensure efficient translation. The fidelity of the DNA encoding the receptor was confirmed by DNA sequencing. The PCR products encoding the receptor were subcloned into a mammalian expression vector containing a neomycin (G418) resistance marker. The mammalian expression vector encoding the receptor was transfected into COS7 cells by a standard liposome transfection method. 48 hours post-transfection, cells were seeded for limited dilution cloning and selected with 1 mg/ml G418 in the culture medium. After 3 weeks, surviving colonies of hCTR2-expressing cells were picked, propagated and tested in the amylin efficacy assay as described in Example 3 below. One hCTR2-expressing clone was chosen for compound profiling.
In vitro activity of test peptides at the hCTR2 and hAMYR3 receptors was assessed by measuring the induction of cAMP following stimulation of the receptor by pramlintide or peptides of the invention using the AlphaScreen® cAMP Assay kit from Perkin-Elmer.
Briefly, COS7 cells expressing hCTR2 (see Example 2, above) were seeded at 30-40,000 cells per well in 96-well microtiter plates coated with 0.01 % poly-L-lysine, and grown for 1 day in culture in 100 µl growth medium [DMEM, 10% FCS, Penicillin (100 IU/ml), Streptomycin (100 µg/ml)]. On the day of analysis, growth medium was removed and the cells were washed once with 200 µl Tyrode buffer [Tyrode's Salts (9.6 g/l), 10 mM HEPES, pH 7.4]. Cells were incubated in 100 µl Tyrode buffer containing increasing concentrations of test peptides, 100 µM IBMX and 0.1% casein for 15 min at 37° C. The reaction was stopped by carefully decanting off the compound/buffer medium and replacing it with lysis/detection buffer (80 µl 0.1 % w/v BSA, 5 mM HEPES, 0.3 % v/v Tween-20 in deionized water). After incubation at room temperature for 10 min., the cAMP content of the resulting cell lysate was estimated according to the AlphaScreen® cAMP Assay manufacturer's instructions. EC50 values and relative efficacy values (in %) compared to reference peptide (Pramlintide) were estimated by computer-aided curve fitting using the 4-parameter logistic (4PL) non-linear model.
The in vitro activity results (expressed as EC50 values) for peptides of the invention and for Pramlintide (reference peptide) are summarized in Table 2, below.

[1] = cAMP induction in COS7 cells expressing hCTR2, average of a minimum of 3 determinations, read-out: hCTR2 EC50

`CC[C@H](C)[C@@H](C(=O)N[C@@H](CC(C)C)C(=O)N[C@H](CO)C(=O)N[C@@H](CO)C(=O)N[C@H](C(=O)N[C@@H](CC(N)=O)C(=O)N[C@H](C(=O)NCC(=O)N[C@@H](CO)C(=O)N[C@@H](CC(N)=O)C(=O)N[C@H](C(=O)N1CCC[C@H]1C(N)=O)[C@@H](C)O)C(C)C)[C@@H](C)O)N(C)C(=O)[C@H](C)NC(=O)CN(C)C(=O)[C@H](Cc1ccccc1)NC(=O)[C@H](CC(N)=O)NC(=O)[C@H](CC(N)=O)NC(=O)[C@H](CO)NC(=O)[C@H](CO)NC(=O)[C@H](Cc1c[nH]cn1)NC(=O)[C@H](Cc1c[nH]cn1)NC(=O)[C@H](CC(C)C)NC(=O)[C@H](Cc1ccccc1)NC(=O)[C@H](CCC(=O)O)NC(=O)[C@H](C)NC(=O)[C@H](CC(C)C)NC(=O)[C@H](CCCNC(=N)N)NC(=O)[C@H](CCC(N)=O)NC(=O)[C@@H](NC(=O)[C@H](C)NC(=O)[C@@H]1CSSC[C@H](NC(=O)[C@H](CCCNC(=N)N)NC(=O)CC[C@H](NC(=O)CCCCCCCCCCCCCCCCCCC(=O)O)C(=O)O)C(=O)N[C@@H](CC(N)=O)C(=O)N[C@@H]([C@@H](C)O)C(=O)N[C@@H](C)C(=O)N[C@@H]([C@@H](C)O)C(=O)N1)[C@@H](C)O` [Compound 23, [19CD]-isoGlu-RC()NTATC()ATQRLAEFLHHSSNNF-Gly(Me)-A-Ile(Me)-L-DSer-STNVGSNTP-NH2] ({C20 diacid-γGlu}-RCNTATCATQRLAEFLHHSSNNF[Sar]A[NMeI]L[dS]STNVGSNTP-NH2; disulfide 2-7) was tested, and the EC50 was 0.074 nM.
`CC(C)C[C@H](NC(=O)[C@H](C)NC(=O)CN(C)C(=O)[C@H](Cc1ccccc1)NC(=O)[C@H](CC(N)=O)NC(=O)[C@H](CC(N)=O)NC(=O)[C@H](CO)NC(=O)[C@H](CO)NC(=O)[C@H](Cc1c[nH]cn1)NC(=O)[C@H](Cc1c[nH]cn1)NC(=O)[C@H](CC(C)C)NC(=O)[C@H](Cc1ccccc1)NC(=O)[C@H](CCC(=O)O)NC(=O)[C@H](C)NC(=O)[C@H](CC(C)C)NC(=O)[C@H](CCCNC(=N)N)NC(=O)[C@H](CCC(N)=O)NC(=O)[C@@H](NC(=O)[C@H](C)NC(=O)[C@@H]1CSSC[C@H](NC(=O)[C@H](CCCNC(=N)N)NC(=O)CC[C@H](NC(=O)CCCCCCCCCCCCCCCCCCC(=O)O)C(=O)O)C(=O)N[C@@H](CC(N)=O)C(=O)N[C@@H]([C@@H](C)O)C(=O)N[C@@H](C)C(=O)N[C@@H]([C@@H](C)O)C(=O)N1)[C@@H](C)O)C(=O)N[C@@H](CO)C(=O)N[C@@H](CO)C(=O)N[C@H](C(=O)N[C@@H](CC(N)=O)C(=O)N[C@H](C(=O)NCC(=O)N[C@@H](CO)C(=O)N[C@@H](CC(N)=O)C(=O)N[C@H](C(=O)N1CCC[C@H]1C(N)=O)[C@@H](C)O)C(C)C)[C@@H](C)O` [Compound 27, [19CD]-isoGlu-RC()NTATC()ATQRLAEFLHHSSNNF-Gly(Me)-ALSSTNVGSNTP-NH2] ({C20 diacid-γGlu}-RCNTATCATQRLAEFLHHSSNNF[Sar]ALSSTNVGSNTP-NH2; disulfide 2-7) gave an EC50 [1] of 0.14 nM.
`CC[C@H](C)[C@@H](C(=O)N[C@@H](CC(C)C)C(=O)N[C@@H](CO)C(=O)N[C@@H](CO)C(=O)N[C@H](C(=O)N[C@@H](CC(N)=O)C(=O)N[C@H](C(=O)NCC(=O)N[C@@H](CO)C(=O)N[C@@H](CC(N)=O)C(=O)N[C@H](C(=O)N1CCC[C@H]1C(N)=O)[C@@H](C)O)C(C)C)[C@@H](C)O)N(C)C(=O)CN(C)C(=O)[C@H](Cc1ccccc1)NC(=O)[C@H](CC(N)=O)NC(=O)[C@H](CC(N)=O)NC(=O)[C@H](CO)NC(=O)[C@@H](CO)NC(=O)[C@H](Cc1c[nH]cn1)NC(=O)[C@H](Cc1c[nH]cn1)NC(=O)[C@H](CC(C)C)NC(=O)[C@H](Cc1ccccc1)NC(=O)[C@H](CCC(=O)O)NC(=O)[C@H](C)NC(=O)[C@H](CC(C)C)NC(=O)[C@H](CCCNC(=N)N)NC(=O)[C@H](CCC(N)=O)NC(=O)[C@@H](NC(=O)[C@H](C)NC(=O)[C@@H]1CSSC[C@H](NC(=O)[C@H](CCCNC(=N)N)NC(=O)CC[C@H](NC(=O)CCCCCCCCCCCCCCCCCCC(=O)O)C(=O)O)C(=O)N[C@@H](CC(N)=O)C(=O)N[C@@H]([C@@H](C)O)C(=O)N[C@@H](C)C(=O)N[C@@H]([C@@H](C)O)C(=O)N1)[C@@H](C)O` [Compound 30, [19CD]-isoGlu-RC()NTATC()ATQRLAEFLHH-DSer-SNNF-Gly(Me)-Ile(Me)-LSSTNVGSNTP-NH2] ({C20 diacid-γGlu}-RCNTATCATQRLAEFLHH[dS]SNNF[Sar][NMeI]LSSTNVGSNTP-NH2; disulfide 2-7) was tested, and the EC50 [1] was 0.56 nM.
Compound `CC[C@H](C)[C@@H](C(=O)N[C@@H](CC(C)C)C(=O)N[C@@H](CO)C(=O)N[C@@H](CO)C(=O)N[C@H](C(=O)N[C@@H](CC(N)=O)C(=O)N[C@H](C(=O)NCC(=O)N[C@@H](CO)C(=O)N[C@@H](CC(N)=O)C(=O)N[C@H](C(=O)N1CCC[C@H]1C(N)=O)[C@@H](C)O)C(C)C)[C@@H](C)O)N(C)C(=O)CN(C)C(=O)[C@H](Cc1ccccc1)NC(=O)[C@H](CC(N)=O)NC(=O)[C@H](CC(N)=O)NC(=O)[C@@H](CO)NC(=O)[C@H](CO)NC(=O)[C@H](Cc1c[nH]cn1)NC(=O)[C@H](Cc1c[nH]cn1)NC(=O)[C@H](CC(C)C)NC(=O)[C@H](Cc1ccccc1)NC(=O)[C@H](CCC(=O)O)NC(=O)[C@H](C)NC(=O)[C@H](CC(C)C)NC(=O)[C@H](CCCNC(=N)N)NC(=O)[C@H](CCC(N)=O)NC(=O)[C@@H](NC(=O)[C@H](C)NC(=O)[C@@H]1CSSC[C@H](NC(=O)[C@H](CCCNC(=N)N)NC(=O)CC[C@H](NC(=O)CCCCCCCCCCCCCCCCCCC(=O)O)C(=O)O)C(=O)N[C@@H](CC(N)=O)C(=O)N[C@@H]([C@@H](C)O)C(=O)N[C@@H](C)C(=O)N[C@@H]([C@@H](C)O)C(=O)N1)[C@@H](C)O` [Compound 34, [19CD]-isoGlu-RC()NTATC()ATQRLAEFLHHS-DSer-NNF-Gly(Me)-Ile(Me)-LSSTNVGSNTP-NH2] ({C20 diacid-γGlu}-RCNTATCATQRLAEFLHHS[dS]NNF[Sar][NMeI]LSSTNVGSNTP-NH2; disulfide 2-7) has an EC50 [1] of 0.26 nM.
For `CC[C@H](C)[C@@H](C(=O)N[C@@H](CC(C)C)C(=O)N[C@@H](CO)C(=O)N[C@@H](CO)C(=O)N[C@H](C(=O)N[C@@H](CC(N)=O)C(=O)N[C@H](C(=O)NCC(=O)N[C@@H](CO)C(=O)N[C@@H](CC(N)=O)C(=O)N[C@H](C(=O)N1CCC[C@H]1C(N)=O)[C@@H](C)O)C(C)C)[C@@H](C)O)N(C)C(=O)[C@H](C)NC(=O)CN(C)C(=O)[C@H](Cc1ccccc1)NC(=O)[C@H](CC(N)=O)NC(=O)[C@H](CC(N)=O)NC(=O)[C@H](CO)NC(=O)[C@H](CO)NC(=O)[C@H](Cc1c[nH]cn1)NC(=O)[C@H](Cc1c[nH]cn1)NC(=O)[C@H](CC(C)C)NC(=O)[C@H](Cc1ccccc1)NC(=O)[C@@H](CCC(=O)O)NC(=O)[C@H](C)NC(=O)[C@H](CC(C)C)NC(=O)[C@H](CCCNC(=N)N)NC(=O)[C@H](CCC(N)=O)NC(=O)[C@@H](NC(=O)[C@H](C)NC(=O)[C@@H]1CSSC[C@H](NC(=O)[C@H](CCCNC(=N)N)NC(=O)CC[C@H](NC(=O)CCCCCCCCCCCCCCCCCCC(=O)O)C(=O)O)C(=O)N[C@@H](CC(N)=O)C(=O)N[C@@H]([C@@H](C)O)C(=O)N[C@@H](C)C(=O)N[C@@H]([C@@H](C)O)C(=O)N1)[C@@H](C)O` [Compound 8, [19CD]-isoGlu-RC()NTATC()ATQRLA-DGlu-FLHHSSNNF-Gly(Me)-A-Ile(Me)-LSSTNVGSNTP-NH2] ({C20 diacid-γGlu}-RCNTATCATQRLA[dE]FLHHSSNNF[Sar]A[NMeI]LSSTNVGSNTP-NH2; disulfide 2-7), the EC50 was 2.6 nM.
